Measured values taken from article PMC6017704 (Molecules : A Journal of Synthetic Chemistry and Natural …, 2018).

Legend:
VEGFR-2 (KDR) kinase = molecular target: T1, VEGFR-2 (KDR) kinase (Homo sapiens, UniProt P35968); test: VEGFR-2 kinase assay (HTRF KinEASE-TK); assay type: biochemical; conditions: for IC50: HTRF, ATP 3 µM, 40 min, dark condition, n = 3
T1 construct: purchased Carna Biosciences

[1] = test system: human umbilical vein endothelial cells (PUMC-HUVEC-T1); test: HUVEC cell anti-proliferation assay (MTT); assay type: cell-based; conditions: for inhibition ratio in HUVEC / viability at 10 µM: 10 µM; for viability at 1 µM / viability at 10 µM / IC50: Homo sapiens, 72 h, MTT; for viability at 1 µM / viability at 10 µM: read-out: Relative Cell Viability (%) ± SD (n = 3); for IC50: n = 3, read-out: IC50, HUVEC relative cell viability
Source text: A major mediator of VEGF-driven responses in endothelial cells is VEGFR-2, which is considered to play a decisive role in both physiologic and pathologic angiogenesis. The homogeneous time-resolved fluorescence (HTRF) method was used in the assay that determined the inhibitory activities of target compounds against VEGFR-2 kinase. Owing to VEGFR-2 overexpression in human umbilical vein endothelial cells (HUVEC), these target compounds were further evaluated in vitro anti-proliferation activity against HUVEC. MTT assay was used in the cell assay. […] In order to ensure the repeatability of the activity test, we choose to complete biological evaluation under the dark condition.
SV40T transforms human umbilical vein endothelial cells (PUMC-HUVEC-T1) were gifts from Dr. Lihua Ding (Institute of Biotechnology, Beijing, China). MTT Cell Proliferation and Cytotoxicity Assay Kit (#GK-5605, Genview) was used to measure cell viability and proliferation. Metabolically active cells in part by the action of dehydrogenase enzymes reduced the yellow tetrazolium MTT to generate purple reducing equivalents such as NADH and NADPH. The resulting intracellular purple formazan can be solubilized and quantified by spectrophotometer.
For MTT assay, cells were seeded into separate 96-well plates at 5000 cells/well and cultured in an incubator containing 5% CO2 at 37 °C for 24 h. Subsequently, target compounds were dissolved into different concentrations with culture medium from 10 mM stock solutions in DMSO, respectively. Then target compounds were added and incubated at 37 °C for 72 h. All assays were performed in triplicate. The untreated groups were used as a vehicle of control. Following the 72-h incubation, discarded culture medium and washed with PBS once time followed by adding 180 µL of fresh culture medium. Cell viability was quantified with MTT assay. According to the manufacturer instructions, 20 µL of MTT solution that was previously thawed and equilibrated to room temperature was added to each well and plates were incubated at 37 °C for 4 h. Termination of culture, the supernatant was carefully discarded and added 150 µL of Formazan dissolution for 10 min vibration at room temperature. The OD value of each well was measured by a spectrophotometer at 490 nm and the inhibitory rates expressed as percentages of the vehicle control (100%). Data processing: ratio = Vsample/Vcontrol × 100%. Vsample is for compound treatment group while Vcontrol is for solvent control group. The GraphPad Prism 5.0 software was used to draw nonlinear regression model and calculated IC50 values.

T1 sequence (P35968 20-1356): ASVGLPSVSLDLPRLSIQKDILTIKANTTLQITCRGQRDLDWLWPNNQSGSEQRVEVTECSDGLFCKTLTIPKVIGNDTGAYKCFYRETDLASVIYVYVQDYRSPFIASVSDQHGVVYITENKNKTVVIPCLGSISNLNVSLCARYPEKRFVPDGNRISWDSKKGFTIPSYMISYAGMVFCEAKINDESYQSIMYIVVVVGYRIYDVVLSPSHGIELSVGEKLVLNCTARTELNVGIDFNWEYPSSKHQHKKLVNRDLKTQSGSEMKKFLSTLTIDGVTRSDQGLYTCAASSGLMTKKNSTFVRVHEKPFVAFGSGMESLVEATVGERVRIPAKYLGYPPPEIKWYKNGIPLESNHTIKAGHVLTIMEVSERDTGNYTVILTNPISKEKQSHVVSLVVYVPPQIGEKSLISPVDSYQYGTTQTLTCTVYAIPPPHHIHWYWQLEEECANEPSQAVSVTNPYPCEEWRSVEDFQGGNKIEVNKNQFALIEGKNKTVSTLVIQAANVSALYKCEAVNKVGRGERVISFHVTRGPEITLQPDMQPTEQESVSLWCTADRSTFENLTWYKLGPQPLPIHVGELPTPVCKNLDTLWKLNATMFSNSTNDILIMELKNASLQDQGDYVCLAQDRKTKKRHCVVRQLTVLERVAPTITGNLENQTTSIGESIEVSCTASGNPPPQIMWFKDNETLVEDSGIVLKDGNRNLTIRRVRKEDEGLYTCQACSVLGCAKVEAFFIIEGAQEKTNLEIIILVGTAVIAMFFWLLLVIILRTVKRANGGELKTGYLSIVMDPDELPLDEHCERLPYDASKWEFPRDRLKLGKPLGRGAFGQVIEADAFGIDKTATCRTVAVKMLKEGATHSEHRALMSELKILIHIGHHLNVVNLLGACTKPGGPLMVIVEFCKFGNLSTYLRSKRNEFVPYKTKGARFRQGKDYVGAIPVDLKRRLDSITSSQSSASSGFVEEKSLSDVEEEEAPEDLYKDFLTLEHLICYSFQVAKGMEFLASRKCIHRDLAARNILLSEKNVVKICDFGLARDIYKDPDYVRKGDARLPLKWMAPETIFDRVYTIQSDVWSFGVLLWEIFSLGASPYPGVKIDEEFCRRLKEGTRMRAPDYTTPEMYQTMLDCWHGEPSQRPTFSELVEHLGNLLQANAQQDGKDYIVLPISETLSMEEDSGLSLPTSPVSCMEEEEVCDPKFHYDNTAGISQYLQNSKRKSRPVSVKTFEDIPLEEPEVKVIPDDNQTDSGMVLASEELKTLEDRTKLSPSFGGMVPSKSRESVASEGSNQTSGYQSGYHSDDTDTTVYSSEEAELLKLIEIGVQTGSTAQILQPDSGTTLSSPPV

| SMILES | IC50 (VEGFR-2 (KDR) kinase) [µM] | increase of VEGFR-2 activity compared with TM2 (VEGFR-2 (KDR) kinase; relative to TM2) | inhibition ratio in HUVEC [1] | viability at 1 µM [1] [%] | viability at 10 µM [1] [%] | IC50 [1] [µM] |
| --- | --- | --- | --- | --- | --- | --- |
| CNC(=O)c1ccccc1Sc1ccc2c(N=Nc3ccc(N(C)C)cc3)n[nH]c2c1 [TM4, 2-(3-((4-(dimethylamino)phenyl)diazenyl)-1H-indazol-6-ylthio)-N-methylbenzamide] | 0.135 ± 0.00125 |  | ≤ 20% | 94.1 ± 1.89 | 82.8 ± 5.32 |  |
| CNC(=O)c1ccccc1Sc1ccc2c(N=Nc3c(OC)cc(N)cc3OC)n[nH]c2c1 [TM2, 2-(3-((4-amino-2,6-dimethoxyphenyl)diazenyl)-1H-indazol-6-ylthio)-N-methylbenzamide] |  |  | ≤ 20% | 107 ± 1.29 | 94.4 ± 5.01 |  |
| CNC(=O)c1ccccc1Sc1ccc2c(N=Nc3cc(C)n(C)c3C)n[nH]c2c1 [TM8, N-methyl-2-(3-((1,2,5-trimethyl-1H-pyrrol-3-yl)diazenyl)-1H-indazol-6-ylthio)benzamide] | 0.158 ± 0.00114 |  |  | 92.3 ± 9.05 | 61.3 ± 10.9 |  |
| CNC(=O)c1ccccc1Sc1ccc2c(N=Nc3ccc(N)cc3OC)n[nH]c2c1 [TM3, 2-(3-((4-amino-2-methoxyphenyl)diazenyl)-1H-indazol-6-ylthio)-N-methylbenzamide] | 0.195 ± 0.00111 | more than ten times | ≤ 20% | 125 ± 8.92 | 84.1 ± 6.83 |  |
| CNC(=O)c1ccccc1Sc1ccc2c(/C=C/c3ccccn3)n[nH]c2c1 [Axitinib, reference compound] |  |  |  | 80 ± 6.64 | 53.2 ± 9.11 |  |
| CNC(=O)c1ccccc1Sc1ccc2c(N=Nc3ccc(C)[nH]3)n[nH]c2c1 [TM11, N-methyl-2-(3-((5-methyl-1H-pyrrol-2-yl)diazenyl)-1H-indazol-6-ylthio)benzamide] | 0.33 ± 0.00114 |  | exceeding 60% | 67.03 ± 0.19 | 31 ± 0.61 | 2.15 |

Further lines, with some results ahead:

| IC50 (VEGFR-2 (KDR) kinase) [µM] | increase of VEGFR-2 activity compared with TM2 (VEGFR-2 (KDR) kinase; relative to TM2) | SMILES | inhibition ratio in HUVEC [1] | viability at 1 µM [1] [%] | viability at 10 µM [1] [%] | IC50 [1] [µM] |
| --- | --- | --- | --- | --- | --- | --- |
| 2.29 ± 0.00117 |  | CNC(=O)c1ccccc1Sc1ccc2c(N=Nc3cccn3C)n[nH]c2c1 [TM6, N-methyl-2-(3-((1-methyl-1H-pyrrol-2-yl)diazenyl)-1H-indazol-6-ylthio)benzamide] | exceeding 60% | 97 ± 10.4 | 19.3 ± 3.82 | 5.03 |
| 0.044 ± 0.00115 |  | CNC(=O)c1ccccc1Sc1ccc2c(N=Nc3cc(C)[nH]c3C)n[nH]c2c1 [TM10, 2-(3-((2,5-dimethyl-1H-pyrrol-3-yl)diazenyl)-1H-indazol-6-ylthio)-N-methylbenzamide] |  | 99.29 ± 0.78 | 66.2 ± 4.43 |  |
| 0.201 ± 0.00126 |  | CNC(=O)c1ccccc1Sc1ccc2c(N=Nc3[nH]c(C)cc3C)n[nH]c2c1 [TM9, 2-(3-((3,5-dimethyl-1H-pyrrol-2-yl)diazenyl)-1H-indazol-6-ylthio)-N-methylbenzamide] |  | 68.54 ± 0.29 | 32.2 ± 1.99 | 2.18 |
| 0.123 ± 0.00108 |  | CNC(=O)c1ccccc1Sc1ccc2c(N=Nc3ccc[nH]3)n[nH]c2c1 [TM7, 2-(3-((1H-pyrrol-2-yl)diazenyl)-1H-indazol-6-ylthio)-N-methylbenzamide] | exceeding 60% | 84.4 ± 4.35 | 39.1 ± 2.49 | 5.73 |
